Results published in ChEMBL document CHEMBL1158687, “A dihydroflavonol glucoside from Commiphora africana that mediates DNA strand scission” (J Nat Prod, 2005).
Activity calls are given as the source filed them. The rule behind the calls is not given here.

Legend:
Escherichia coli [1] = test: Induction of strand scission in pBR322 DNA in presence of ferrous ion
Escherichia coli [2] = test: Induction of strand scission in pBR322 DNA assessed as conversion from supercoiled form to nicked circular form at 50 uM in presence of copper
Escherichia coli [3] = test: Induction of strand scission in pBR322 DNA in presence of copper
Escherichia coli [4] = test: Induction of strand scission in pBR322 DNA assessed as formation of linear duplex and nicked form at 100 uM in presence of copper

Activity (Escherichia coli [1]): inactive
Activity (Escherichia coli [2]): 62%
Activity (Escherichia coli [3]): Dose-dependent effect
Activity (Escherichia coli [4]): Active
Compound: CC(C)=CCc1c(O[C@@H]2O[C@H](CO)[C@@H](O)[C@H](O)[C@H]2O)cc(O)c2c1O[C@H](c1ccc(O)cc1)[C@@H](O)C2=O
